From paper PMC6056506, “Single olfactory receptors set odor detection thresholds” (Nature Communications, 2018)

What was measured:
Experiment in all cases: in vivo wide-field GCaMP3 calcium imaging of identified glomeruli, awake mice
TAAR4 = molecular target: T1, TAAR4 (Mus musculus, UniProt Q5QD15); details: agonist; vapour-phase odorant concentration (flow dilution olfactometer), not aqueous; glomerular read-out
T1 construct: full-length native receptor from endogenous locus in olfactory sensory neurons; allele TAAR4-IRES-tauCherry (TAAR4-RFP); receptor itself untagged
T1 sequence (Q5QD15 1-347): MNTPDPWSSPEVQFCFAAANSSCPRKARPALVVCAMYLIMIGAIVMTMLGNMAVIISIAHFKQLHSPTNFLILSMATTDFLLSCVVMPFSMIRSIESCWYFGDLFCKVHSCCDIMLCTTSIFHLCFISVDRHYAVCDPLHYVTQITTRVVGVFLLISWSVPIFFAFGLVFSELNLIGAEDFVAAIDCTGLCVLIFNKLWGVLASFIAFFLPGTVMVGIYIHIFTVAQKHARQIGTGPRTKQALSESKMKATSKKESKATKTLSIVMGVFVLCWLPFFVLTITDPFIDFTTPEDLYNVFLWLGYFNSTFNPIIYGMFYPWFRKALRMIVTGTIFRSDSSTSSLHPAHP

TAAR3 = molecular target: T2, TAAR3 (Mus musculus, UniProt Q5QD16); details: agonist, vapour-phase odorant concentration (flow dilution olfactometer), not aqueous, glomerular read-out
T2 construct: full-length native receptor from endogenous locus in olfactory sensory neurons; allele TAAR3-IRES-tauVenus (TAAR3-YFP); receptor itself untagged
T2 sequence (Q5QD16 1-343): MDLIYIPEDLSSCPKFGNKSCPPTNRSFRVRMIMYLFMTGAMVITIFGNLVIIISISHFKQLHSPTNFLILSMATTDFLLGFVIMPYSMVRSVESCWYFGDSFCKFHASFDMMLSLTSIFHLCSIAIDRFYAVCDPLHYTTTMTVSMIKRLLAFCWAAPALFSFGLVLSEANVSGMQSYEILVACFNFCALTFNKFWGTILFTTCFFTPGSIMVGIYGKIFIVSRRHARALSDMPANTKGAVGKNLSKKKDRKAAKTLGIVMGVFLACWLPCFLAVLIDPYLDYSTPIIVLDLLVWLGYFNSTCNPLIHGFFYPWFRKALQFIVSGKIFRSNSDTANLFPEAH

TAAR5 = molecular target: T3, TAAR5 (Mus musculus, UniProt Q5QD14); details: agonist; vapour-phase odorant concentration (flow dilution olfactometer), not aqueous; glomerular read-out
T3 construct: full-length native receptor in olfactory sensory neurons; glomeruli identified by response profile and from separate TAAR5-RFP imaging experiments
T3 sequence (Q5QD14 1-337): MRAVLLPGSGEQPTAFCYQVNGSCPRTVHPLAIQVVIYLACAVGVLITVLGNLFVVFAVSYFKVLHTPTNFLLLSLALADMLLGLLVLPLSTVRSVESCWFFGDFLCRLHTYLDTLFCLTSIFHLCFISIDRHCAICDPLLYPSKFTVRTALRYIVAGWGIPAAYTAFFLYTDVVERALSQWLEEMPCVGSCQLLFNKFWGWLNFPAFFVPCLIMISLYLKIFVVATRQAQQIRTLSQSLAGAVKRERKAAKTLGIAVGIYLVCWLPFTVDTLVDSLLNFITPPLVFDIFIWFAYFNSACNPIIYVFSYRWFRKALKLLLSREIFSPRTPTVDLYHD

Structure (SMILES)	EC50 (TAAR4) [nM]	EC50 (TAAR3) [nM]	EC50 (TAAR3; printed CI does not contain the value) [nM]	EC50 (TAAR5) [nM]
CC(C)CCN [isopentylamine]	9.9	0.41		
NCCc1ccccc1 [phenylethylamine]			0.19	
CN(C)C [trimethylamine]	470	790		31
